From patent publication US20250353858A1, “CONDENSED HETEROCYCLIC COMPOUNDS AS INHIBITOR OF DIACYLGLYCEROL KINASES” (BEONE MEDICINES I GMBH, priority 2023, published 2025)

Tests used:
DGKζ = DGKζ (Homo sapiens (Human), UniProt Q13574); experiment: Biochemical DGK IC50 assay (ADP-Glo, lipid micelle substrate), DGKζ; details: full length DGKζ 0.5 nM, ATP 140 μM, DAG 80 μM
Experimental: (§1) Enzymatic reactions of DGKζ, DGKα and DGKδ were performed using ADP-Glo assay with lipid micelle substrate. […] Full length DGKα (D21-10BG, SignalChem) and full length DGKδ (D23-10G, SignalChem) were purchased. Lipid micelle was prepared by dissolving DAG (Sigma, 317505-10MG) and PS (Sigma, P7769-100MG) with chloroform which was furtherly removed by rotary evaporation. The resulted product was resuspended in buffer containing 25 mM HEPES pH 7.0, 0.5 mM EDTA and 160 mM Octyl β-D glucopyranoside by vigorous mixing and ultrasonic (IID, Scientz).
(§2) The inhibition activities testing for the compound disclosed herein were carried out at room temperature in assay buffer containing 50 mM HEPES, 10 mM MgCl2, 0.01% BSA, 0.1 mM Na3VO4, 0.005% Tween-20 and 0.01 mM CaCl2. Compounds in DMSO were dispensed into wells of a black 384 well plate (Corning 4514) using D300e digital dispenser (Tecan). […] 3 μL 2× enzyme solution was added to wells. […] After 1 hour reaction, 5 μL ADP-Glo reagent (Promga V9101) was added and incubated for 40 minutes. 10 μL Kinase Detection reagent was added and incubated for 30 minutes. Luminescence was measured on a microplate reader (PHERAstar FSX, BMG labtech). The IC50s are calculated based on inhibition of enzyme activity in the presence of increasing concentrations of compounds.
Human His-TEV-DGK-zeta-pFastBac1 and human baculovirus samples was generated using the Bac-to-Bac baculovirus expression system (Invitrogen) according to the manufacturer's protocol. The DNA used for expression of DGK-zeta, have SEQ ID Nos: 1. Baculovirus amplification was achieved using infected SF9 cells at 1:2000 virus/cells ratios, and grown for 96 hours at 27° C. post-transfected.
Full length human DGKζ produced as described above, was purified from Sf9 baculovirus-infected insect cell paste. The cells were lysed using sonication method, and the lysates were clarified by centrifugation.

DGKα = DGKα (Homo sapiens (Human), UniProt P23743); experiment: Biochemical DGK IC50 assay (ADP-Glo, lipid micelle substrate), DGKα; details: full length DGKα […], ATP 140 μM, DAG 80 μM; also: full length DGKα 7.5 nM
Chain of DGKα (P23743 whole entry): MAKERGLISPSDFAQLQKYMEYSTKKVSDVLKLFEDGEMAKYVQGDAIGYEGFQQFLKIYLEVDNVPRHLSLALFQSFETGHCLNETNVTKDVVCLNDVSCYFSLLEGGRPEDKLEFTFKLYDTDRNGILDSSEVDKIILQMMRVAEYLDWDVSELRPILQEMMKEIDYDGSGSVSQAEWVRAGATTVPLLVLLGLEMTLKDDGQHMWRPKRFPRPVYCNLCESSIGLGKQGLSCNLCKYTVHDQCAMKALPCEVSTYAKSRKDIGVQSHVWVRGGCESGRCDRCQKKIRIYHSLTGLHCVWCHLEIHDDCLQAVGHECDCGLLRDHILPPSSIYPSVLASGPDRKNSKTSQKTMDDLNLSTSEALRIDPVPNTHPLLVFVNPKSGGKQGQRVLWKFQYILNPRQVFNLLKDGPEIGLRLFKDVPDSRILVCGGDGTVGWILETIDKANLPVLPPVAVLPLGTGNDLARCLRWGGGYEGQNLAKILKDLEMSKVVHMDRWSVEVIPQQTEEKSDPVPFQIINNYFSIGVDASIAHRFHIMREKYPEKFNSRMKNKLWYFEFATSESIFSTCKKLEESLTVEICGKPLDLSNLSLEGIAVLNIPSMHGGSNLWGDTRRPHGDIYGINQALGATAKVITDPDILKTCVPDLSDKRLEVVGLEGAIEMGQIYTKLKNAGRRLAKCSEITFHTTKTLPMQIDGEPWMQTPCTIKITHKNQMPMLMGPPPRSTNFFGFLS
Experimental: as §1, §2

Chain of DGKζ (Q13574 other isoform, or with tags, fused parts or gaps): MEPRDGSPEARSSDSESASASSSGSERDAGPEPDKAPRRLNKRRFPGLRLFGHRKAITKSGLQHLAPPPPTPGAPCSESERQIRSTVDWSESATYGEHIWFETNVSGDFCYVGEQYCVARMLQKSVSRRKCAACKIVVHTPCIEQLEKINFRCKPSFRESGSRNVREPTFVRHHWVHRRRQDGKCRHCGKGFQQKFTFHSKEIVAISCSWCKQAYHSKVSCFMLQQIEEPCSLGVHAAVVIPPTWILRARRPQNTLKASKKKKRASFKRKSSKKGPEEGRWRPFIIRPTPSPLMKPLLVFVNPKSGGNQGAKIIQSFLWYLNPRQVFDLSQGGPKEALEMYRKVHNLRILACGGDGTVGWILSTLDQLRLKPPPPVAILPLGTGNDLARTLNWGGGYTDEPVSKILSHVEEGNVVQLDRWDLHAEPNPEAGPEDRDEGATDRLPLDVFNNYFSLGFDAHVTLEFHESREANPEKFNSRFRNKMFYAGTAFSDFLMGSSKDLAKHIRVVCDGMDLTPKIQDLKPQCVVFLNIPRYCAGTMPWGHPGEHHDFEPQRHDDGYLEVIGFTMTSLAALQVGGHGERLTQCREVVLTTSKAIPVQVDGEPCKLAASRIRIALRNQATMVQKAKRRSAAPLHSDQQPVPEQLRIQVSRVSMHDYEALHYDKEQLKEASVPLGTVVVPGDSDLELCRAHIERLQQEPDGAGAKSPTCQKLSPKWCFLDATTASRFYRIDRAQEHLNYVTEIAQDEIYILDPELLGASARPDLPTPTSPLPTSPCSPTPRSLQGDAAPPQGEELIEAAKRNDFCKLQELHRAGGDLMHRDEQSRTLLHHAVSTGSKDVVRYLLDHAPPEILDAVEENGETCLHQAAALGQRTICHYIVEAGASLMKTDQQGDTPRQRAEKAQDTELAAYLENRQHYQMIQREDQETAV

Row | Compound | IC50 (DGKζ) [nM] | IC50 (DGKα) [nM]
1 | CC[C@H]1CN(C(C)c2ccc3nc(C)sc3c2)[C@H](CC)CN1c1nc(=O)n(C)c2cc(CC#N)nn12 (single isomer, unassigned) [Compound A53a] | 20 | 114
2 | CC[C@H]1CN(C(C)c2ccc3nc(C)sc3c2)[C@H](CC)CN1c1nc(=O)n(C)c2cc(CC#N)nn12 (single isomer, unassigned) [Compound A53b] | 552 | 947
3 | CC[C@H]1CN(C(C)c2ccn3nc(C4CC4)cc3n2)[C@H](CC)CN1c1nc(=O)n(C)c2cc(CC#N)nn12 (single isomer, unassigned) [Compound A54a] | 4900 | 485
4 | CC[C@H]1CN(C(C)c2ccn3nc(C4CC4)cc3n2)[C@H](CC)CN1c1nc(=O)n(C)c2cc(CC#N)nn12 (single isomer, unassigned) [Compound A54b] | 19 | 69
5 | CC(c1ccc2nccnc2c1)N1C[C@H](C)N(c2cc(=O)n(C)c3cc(C#N)nn23)C[C@H]1C (stereo partly drawn) [Compound A1, 7-((2S,5R)-2,5-dimethyl-4-(1-(quinoxalin-6-yl)ethyl)piperazin-1-yl)-4-methyl-5-oxo-4,5-dihydropyrazolo[1,5-a]pyrimidine-2-carbonitrile] | 1000 | 810
6 | Cc1cnc2ccc(C(C)N3C[C@H](C)N(c4cc(=O)[nH]c5cc(CC#N)nn45)C[C@H]3C)cc2n1 (stereo partly drawn) [Compound A5, 2-(7-((2S,5R)-2,5-dimethyl-4-(1-(3-methylquinoxalin-6-yl)ethyl)piperazin-1-yl)-5-oxo-4,5-dihydropyrazolo[1,5-a]pyrimidin-2-yl)acetonitrile] | 100 | 116000
7 | CC(c1ccc2ncc(C(F)F)nc2c1)N1C[C@H](C)N(c2cc(=O)n(C)c3cc(CC#N)nn23)C[C@H]1C (stereo partly drawn) [Compound A6, 2-(7-((2S,5R)-4-(1-(3-(difluoromethyl)quinoxalin-6-yl)ethyl)-2,5-dimethylpiperazin-1-yl)-4-methyl-5-oxo-4,5-dihydropyrazolo[1,5-a]pyrimidin-2-yl)acetonitrile] | 58 | 4640
8 | COc1cnc2ccc(C(C)N3C[C@H](C)N(c4cc(=O)n(C)c5cc(CC#N)nn45)C[C@H]3C)cc2n1 (stereo partly drawn) [Compound A7, 2-(7-((2S,5R)-4-(1-(3-methoxyquinoxalin-6-yl)ethyl)-2,5-dimethylpiperazin-1-yl)-4-methyl-5-oxo-4,5-dihydropyrazolo[1,5-a]pyrimidin-2-yl)acetonitrile] | 23 | 16900
9 | CC(c1ccc2ncc(Cl)nc2c1)N1C[C@H](C)N(c2cc(=O)n(C)c3cc(CC#N)nn23)C[C@H]1C (stereo partly drawn) [Compound A8, 2-(7-((2S,5R)-4-(1-(3-chloroquinoxalin-6-yl)ethyl)-2,5-dimethylpiperazin-1-yl)-4-methyl-5-oxo-4,5-dihydropyrazolo[1,5-a]pyrimidin-2-yl)acetonitrile] | 42 | 13300
10 | CC(c1ccc2c(c1)OC(C)(C)CO2)N1C[C@H](C)N(c2c(C#N)c(=O)n(C)c3cc(CC#N)nn23)C[C@H]1C (stereo partly drawn) [Compound A12, 2-(cyanomethyl)-7-((2S,5R)-4-(1-(3,3-dimethyl-2,3-dihydrobenzo[b][1,4]dioxin-6-yl)ethyl)-2,5-dimethylpiperazin-1-yl)-4-methyl-5-oxo-4,5-dihydropyrazolo[1,5-a]pyrimidine-6-carbonitrile] | 29 | 6520
11 | CC(c1ccc2c(c1)OCCO2)N1C[C@H](C)N(c2cc(=O)n(C)c3cc(CC#N)nn23)C[C@H]1C (stereo partly drawn) [Compound A13, 2-(7-((2S,5R)-4-(1-(2,3-dihydrobenzo[b][1,4]dioxin-6-yl)ethyl)-2,5-dimethylpiperazin-1-yl)-4-methyl-5-oxo-4,5-dihydropyrazolo[1,5-a]pyrimidin-2-yl)acetonitrile] | 53 | 10200
12 | CC[C@H]1CN(C(C)c2ccc(F)cc2OC)[C@H](CC)CN1c1cc(=O)n(C)c2cc(CC#N)nn12 (stereo partly drawn) [Compound A16, 2-(7-((2S,5R)-2,5-diethyl-4-(1-(4-fluoro-2-methoxyphenyl)ethyl)piperazin-1-yl)-4-methyl-5-oxo-4,5-dihydropyrazolo[1,5-a]pyrimidin-2-yl)acetonitrile] | 100 | 27800
13 | CC[C@H]1CN(C(C)c2ccc(F)cc2OC(F)F)[C@H](CC)CN1c1cc(=O)n(C)c2cc(CC#N)nn12 (stereo partly drawn) [Compound A17, 2-(7-((2S,5R)-4-(1-(2-(difluoromethoxy)-4-fluorophenyl)ethyl)-2,5-diethylpiperazin-1-yl)-4-methyl-5-oxo-4,5-dihydropyrazolo[1,5-a]pyrimidin-2-yl)acetonitrile] | 136 | 56700
14 | CC[C@H]1CN(C(C)c2ccc(F)cc2C(F)F)[C@H](CC)CN1c1cc(=O)n(C)c2cc(CC#N)nn12 (stereo partly drawn) [Compound A18, 2-(7-((2S,5R)-4-(1-(2-(difluoromethyl)-4-fluorophenyl)ethyl)-2,5-diethylpiperazin-1-yl)-4-methyl-5-oxo-4,5-dihydropyrazolo[1,5-a]pyrimidin-2-yl)acetonitrile] | 28 | 15700
15 | CC[C@H]1CN(C(C)c2ccncc2)[C@H](CC)CN1c1cc(=O)n(C)n2cc(CC#N)nc12 (stereo partly drawn) [Compound A19, 2-(8-((2S,5R)-2,5-diethyl-4-(1-(pyridin-4-yl)ethyl)piperazin-1-yl)-5-methy-6-oxo-5,6-dihydroimidazo[1,2-b]pyridazin-2-yl)acetonitrile] | 7900 | 161
16 | CC[C@H]1CN(C(C)c2ccc(C3CC3)cc2F)[C@H](CC)CN1c1cc(=O)n(C)c2cc(CC#N)nn12 (stereo partly drawn) [Compound A21, 2-(7-((2S,5R)-4-(1-(4-cyclopropyl-2-fluorophenyl)ethyl)-2,5-diethylpiperazin-1-yl)-4-methyl-5-oxo-4,5-dihydropyrazolo[1,5-a]pyrimidin-2-yl)acetonitrile] | 717 | 2940
17 | CC[C@H]1CN(C(C)c2ccc(C3CC3)nc2)[C@H](CC)CN1c1cc(=O)n(C)c2cc(CC#N)nn12 (stereo partly drawn) [Compound A23, 2-(7-((2S,5R)-4(1-(6-cyclopropylpyridin-3-yl)ethyl)-2,5-diethylpiperazin-1-yl)-4-methyl-5-oxo-4,5-dihydropyrazolo[1,5-a]pyrimidin-2-yl)acetonitrile] | 105 | 913
18 | CC[C@H]1CN(C(C)c2ccc(OC(C)C)cn2)[C@H](CC)CN1c1cc(=O)n(C)c2cc(CC#N)nn12 (stereo partly drawn) [Compound A25, 2-(7-((2S,5R)-2,5-diethyl-4-(1-(5-isopropoxypyridin-2-yl)ethyl)piperazin-1-yl)-4-methyl-5-oxo-4,5-dihydropyrazolo[1,5-a]pyrimidin-2-yl)acetonitrile] | 175 | 148
19 | CC[C@H]1CN(C(C)c2ccc(C3CC3)nc2F)[C@H](CC)CN1c1cc(=O)n(C)c2cc(CC#N)nn12 (stereo partly drawn) [Compound A26, 2-(7-((2S,5R)-4-(1-(6-cyclopropyl-2-fluoropyridin-3-yl)ethyl)-2,5-diethylpiperazin-1-yl)-4-methyl-5-oxo-4,5-dihydropyrazolo[1,5-a]pyrimidin-2-yl)acetonitrile] | 61 | 1200
20 | CC[C@H]1CN(C(C)c2ccc3nc(C)sc3c2)[C@H](CC)CN1c1cc(=O)n(C)c2cc(CC#N)nn12 (stereo partly drawn) [Compound A31, 2-(7-((2S,5R)-2,5-diethyl-4-(1-(2-methylbenzo[d]thiazol-6-yl)ethyl)piperazin-1-yl)-4-methyl-5-oxo-4,5-dihydropyrazolo[1,5-a]pyrimidin-2-yl)acetonitrile] | 80 | 617
21 | CC[C@H]1CN(C(C)c2ccc3nc(C)sc3n2)[C@H](CC)CN1c1c(F)c(=O)n(C)c2cc(CC#N)nn12 (stereo partly drawn) [Compound A36, 2-(7-((2S,5R)-2,5-diethyl-4-(1-(2-methylthiazolo[5,4-b]pyridin-5-yl)ethyl)piperazin-1-yl)-6-fluoro-4-methyl-5-oxo-4,5-dihydropyrazolo[1,5-a]pyrimidin-2-yl)acetonitrile] | 629 | 1580
22 | CCC(c1ccn2nc(C)cc2n1)N1C[C@H](C)N(c2cc(=O)n(C)c3cc(CC#N)nn23)C[C@H]1CC (stereo partly drawn) [Compound A43, 2-(7-((2S,5R)-5-ethyl-2-methyl-4-(1-(2-methylpyrazolo [1,5-a]pyrimidin-5-yl)propyl)piperazin-1-yl)-4-methyl-5-oxo-4,5-dihydropyrazolo [1,5-a]pyrimidin-2-yl)acetonitrile] | 266 | 267
23 | CC[C@H]1CN(C(C)c2ccn3ncc(F)c3n2)[C@H](CC)CN1c1nc(=O)n(C)c2cc(CC#N)nn12 (stereo partly drawn) [Compound A50, 2-(4-((2S,5R)-2,5-diethyl-4-(1-(3-fluoropyrazolo[1,5-a]pyrimidin-5-yl)ethyl)piperazin-1-yl)-1-methyl-2-oxo-1,2-dihydropyrazolo[1,5-a][1,3,5]triazin-7-yl)acetonitrile] | 38 | 55
